Here are results for seven compounds from ChEMBL document CHEMBL6078678, “Unveiling the Antimycobacterial Potential of Novel 4-Alkoxyquinolines: Insights into Selectivity, Mechanism of Action, and In Vivo Exposure” (J Med Chem, 2024).

Structures are written as SMILES.

Holding throughout (experiment): microbe, parasite or virus in culture
The subject of experiment [1] is Mycobacterium tuberculosis.
The subject of experiment [2] is Mycobacterium tuberculosis. This is another data set of the same source.
The test system of experiment [3] is Mycobacterium tuberculosis. The source holds these as a separate data set.

Turning to `Cc1cc(OCCCNc2ccc(Br)cc2)c2cc(Cl)ccc2n1`, the MIC in experiment [1], in experiment [2] and in experiment [3] was less than 0.06 µM each time.
Take `COc1ccc2nc(C)cc(OCCCNc3ccc(Br)cc3)c2c1`: the MIC in experiment [1], in experiment [2] and in experiment [3] was less than 0.05 µM throughout.
Consider `Cc1cc(OCCCNc2ccc(Cl)cc2)c2cc(Br)ccc2n1`, for which the MIC in experiment [1], in experiment [2] and in experiment [3] was less than 0.05 µM each time.
As for `CCc1ccc(NCCCOc2cc(C)nc3ccc(Cl)cc23)cc1`, the MIC in experiment [1], in experiment [2] and in experiment [3] was less than 0.06 µM in each case.
`COc1ccc2nc(C)cc(OCCCNc3ccc(I)cc3)c2c1`: the MIC in experiment [1], in experiment [2] and in experiment [3] was less than 0.05 µM throughout.
Regarding `CCc1ccc(NCCCOc2cc(CC)nc3ccc(Br)cc23)cc1`, the MIC in experiment [1], in experiment [2] and in experiment [3] was less than 0.05 µM throughout.
As to `CCc1ccc(NCCCOc2cc(C)nc3ccc(Br)cc23)cc1`, the MIC in experiment [1], in experiment [2] and in experiment [3] was less than 0.05 µM in each case.
